From ChEMBL document CHEMBL5729568, “Ras inhibitors” (2023)

Experiments:
[1] = (§1) Biochemical Assay: A variety of Ras proteins may be inhibited by compounds of the present invention (e.g., K-Ras, N-Ras, H-Ras, and mutants thereof at positions 12, 13 and 61, such as G12C, G12D, G12V, G12S, G13C, G13D, and Q61L, and others described herein). The purpose of this biochemical assay is to measure the ability of test compounds to covalently label nucleotide-loaded K-Ras isoforms. […] The sample is incubated at 25? C. for a time period of up to 24 hours prior to quenching by the addition of 10 uL of 5% Formic Acid. Quenched samples are centrifuged at 15000 rpm for 15 minutes in a benchtop centrifuge before injecting a 10 uL aliquot onto a reverse phase C4 column and eluting into the mass spectrometer with an increasing acetonitrile gradient in the mobile phase. Analysis of raw data may be carried out using Waters MassLynx MS software, with % bound calculated from the deconvoluted protein peaks for labeled and unlabeled K-Ras.
[2] = as §1; remark: listed apart in the source
[3] = as §1; remark: listed apart in the source
[4] = as §1; remark: listed apart in the source
[5] = as §1; remark: listed apart in the source

| SMILES | IC50 [1] | IC50 [2] | IC50 [3] | IC50 [4] | IC50 [5] |
| --- | --- | --- | --- | --- | --- |
| C=CC(=O)N1CC[C@H](C(=O)N(C)[C@H](C(=O)N[C@H]2Cc3cc(O)cc(c3)-c3ccc4c(c3)c(c(-c3cccnc3[C@H](C)OC)n4CC)CC(C)(C)COC(=O)[C@@H]3CCCN(N3)C2=O)C(C)C)C1 (atropisomer M) | in the range around 5.5 µM | in the range around 5.5 µM | in the range around 5.5 µM | in the range around 5.5 µM | in the range around 0.55 µM |
| C=CC(=O)N1CC(OCC(C(=O)N[C@H]2Cc3cccc(c3)-c3ccc4c(c3)c(c(-c3cccnc3C(C)OC)n4CC)CC(C)(C)COC(=O)[C@@H]3CCCN(N3)C2=O)C(C)C)C1 (stereo not given in full) |  | in the range around 5.5 µM | > 10 µM |  | in the range around 5.5 µM |
| CCn1c(-c2cccnc2C(C)OC)c2c3cc(ccc31)-c1cccc(c1)C[C@H](NC(=O)[C@H](C(C)C)N(C)C(=O)[C@H]1CCN(C(=O)/C=C/CF)C1)C(=O)N1CCC[C@H](N1)C(=O)OCC(C)(C)C2 (stereo not given in full) | in the range around 5.5 µM | in the range around 0.55 µM | in the range around 5.5 µM | in the range around 5.5 µM | in the range around 0.55 µM |
| C=CC(=O)N1CC2(CCN([C@H](C(=O)N[C@H]3Cc4cc(O)cc(c4)-c4ccc5c(c4)c(c(-c4ccccc4CCOC)n5CC)CC(C)(C)COC(=O)[C@@H]4CCCN(N4)C3=O)C(C)C)C2=O)C1 |  |  | in the range around 5.5 µM |  |  |
| C=CC(=O)N1CC[C@H](C(=O)N(C)[C@H](C(=O)N[C@H]2Cc3cc(OC(=O)NCC(=O)O)cc(c3)-c3ccc4c(c3)c(c(-c3ccccc3CCOC)n4CC)CC(C)(C)COC(=O)[C@@H]3CCCN(N3)C2=O)C(C)C)C1 | in the range around 5.5 µM | in the range around 0.55 µM | in the range around 5.5 µM |  |  |
| CCn1c(-c2cccnc2C(C)OC)c2c3cc(ccc31)-c1cccc(c1)C[C@H](NC(=O)[C@H](C(C)C)N(C)C(=O)[C@H]1CCN(C(=O)/C=C/C(F)F)C1)C(=O)N1CCC[C@H](N1)C(=O)OCC(C)(C)C2 (stereo not given in full) | in the range around 5.5 µM | in the range around 0.55 µM | in the range around 5.5 µM | in the range around 5.5 µM | in the range around 0.055 µM |
| C=CC(=O)N1CC(OCC(C(=O)N[C@H]2Cc3nc(cs3)-c3ccc4c(c3)c(c(-c3cccnc3C(C)OC)n4CC)CC(C)(C)COC(=O)[C@@H]3CCCN(N3)C2=O)C(C)C)C1 (stereo not given in full) | in the range around 5.5 µM | in the range around 5.5 µM | in the range around 5.5 µM | in the range around 5.5 µM | in the range around 0.55 µM |
| C=CC(=O)C1C[C@@H](C(=O)N(C)[C@H](C(=O)N[C@@H]2Cc3cc(O)cc(c3)-c3cnc4c(c3)c(c(-c3ccccc3CCOC)n4CC)CC(C)(C)COC(=O)[C@@H]3CCCN(N3)C2=O)C(C)C)CN1 (stereo not given in full) | in the range around 5.5 µM |  | in the range around 5.5 µM |  | in the range around 5.5 µM |
| C=CC(=O)N1CC(OCC(C(=O)N[C@H]2Cc3cc(cc(C(F)F)c3)-c3ccc4c(c3)c(c(-c3cccnc3C(C)OC)n4CC)CC(C)(C)COC(=O)[C@@H]3CCCN(N3)C2=O)C(C)C)C1 (stereo not given in full) | > 10 µM | > 10 µM | > 10 µM | > 10 µM | > 10 µM |
| CCn1c(-c2cccnc2C(C)OC)c2c3cc(ccc31)-c1cc(O)cc(c1)C[C@H](NC(=O)[C@H](C(C)C)N(C)C(=O)c1ncc(NC(=O)/C=C/CN(C)C)n1C)C(=O)N1CCC[C@H](N1)C(=O)OCC(C)(C)C2 (stereo not given in full) | in the range around 0.55 µM | < 0.01 µM | in the range around 0.55 µM | in the range around 0.55 µM | < 0.01 µM |
| C=CC(=O)Nc1cnc(C(=O)N(C)[C@H](C(=O)N[C@H]2Cc3cccc(c3)-c3ccc4c(c3)c(c(-c3cccnc3C(C)OC)n4CC)CC(C)(C)COC(=O)[C@@H]3CCCN(N3)C2=O)C(C)C)n1C (stereo not given in full) | in the range around 5.5 µM | in the range around 0.055 µM | in the range around 5.5 µM | in the range around 5.5 µM | in the range around 0.055 µM |
| C=CC(=O)N1CC[C@H](C(=O)N(C)[C@H](C(=O)N[C@H]2Cc3cc(O)cc(c3)-c3ccc4c(c3)c(c(-c3ccncc3CCOC)n4CC)CC(C)(C)COC(=O)[C@@H]3CCCN(N3)C2=O)C(C)C)C1 | in the range around 0.55 µM | in the range around 0.55 µM | in the range around 0.55 µM |  |  |
| C=CC(=O)N1CC[C@H](C(=O)N(C)[C@H](C(=O)N[C@H]2Cc3cccc(c3)-c3ccc4c(c3)c(c(-c3cc(C5=CCN(C)CC5)cnc3C(C)OC)n4CC)CC(C)(C)COC(=O)[C@@H]3CCCN(N3)C2=O)C(C)C)C1 (stereo not given in full) | > 10 µM | in the range around 5.5 µM | > 10 µM | > 10 µM | in the range around 5.5 µM |
| C=CC(=O)N1CC[C@H](C(=O)N(C)[C@H](C(=O)N[C@H]2Cc3cc(O)cc(c3)-c3ccc4c(c3)c(c(-c3cnccc3[C@H](C)OC)n4CC)CC(C)(C)COC(=O)[C@@H]3CCCN(N3)C2=O)C(C)C)C1 | in the range around 0.055 µM | in the range around 0.055 µM | in the range around 0.055 µM | in the range around 0.055 µM |  |
| C=CC(=O)N1CC[C@H](C(=O)N(C)[C@H](C(=O)N[C@H]2Cc3cc(OC(=O)CCC(=O)O)cc(c3)-c3ccc4c(c3)c(c(-c3ccccc3CCOC)n4CC)CC(C)(C)COC(=O)[C@@H]3CCCN(N3)C2=O)C(C)C)C1 | in the range around 0.55 µM | in the range around 5.5 µM | in the range around 5.5 µM |  |  |
| CCn1c(-c2cccnc2C(C)OC)c2c3cc(ccc31)-c1cccc(c1)C[C@H](NC(=O)CCOC1CN(C(=O)C#CC(C)(C)N(C)C)C1)C(=O)N1CCC[C@H](N1)C(=O)OCC(C)(C)C2 (stereo not given in full) | > 10 µM | > 10 µM | > 10 µM | > 10 µM | in the range around 0.055 µM |
| C=CC(=O)N1CC[C@H](C(=O)N(C)[C@H](C(=O)N[C@H]2Cc3cc(O)cc(c3)-c3cc(F)c4c(c3)c(c(-c3ccccc3CCOC)n4CC)CC(C)(C)COC(=O)[C@@H]3CCCN(N3)C2=O)C(C)C)C1 | in the range around 5.5 µM |  |  |  |  |
| CCn1c(-c2cccnc2C(C)OC)c2c3cc(ccc31)-c1cc(cc(C(F)F)c1)C[C@H](NC(=O)C(COC1CN(C(=O)C#CC(C)(C)N(C)C)C1)C(C)C)C(=O)N1CCC[C@H](N1)C(=O)OCC(C)(C)C2 (stereo not given in full) | > 10 µM | > 10 µM | > 10 µM | > 10 µM | in the range around 0.55 µM |
| CCn1c(-c2cccnc2[C@H](C)OC)c2c3cc(ccc31)-c1cc(O)cc(c1)C[C@H](NC(=O)[C@H](C(C)C)N(C)C(=O)c1nc(NC(=O)/C=C/CN(C)C)cs1)C(=O)N1CCC[C@H](N1)C(=O)OCC(C)(C)C2 |  | in the range around 0.055 µM | in the range around 5.5 µM | in the range around 5.5 µM |  |
| C=CC(=O)N1CC[C@]2(CCN(C(=O)N(C)[C@H](C(=O)N[C@@H]3Cc4cc(O)cc(c4)-c4ccc5c(c4)c(c(-c4ccccc4CCOC)n5CC)CC(C)(C)COC(=O)[C@@H]4CCCN(N4)C3=O)C(C)C)C2=O)C1 | in the range around 5.5 µM | in the range around 0.55 µM | in the range around 5.5 µM |  |  |
| CCn1c(-c2cnccc2COC)c2c3cc(ccc31)-c1cc(O)cc(c1)C[C@H](NC(=O)[C@H](C(C)C)N(C)C(=O)[C@H]1CCN(C(=O)C#CCN(C)C)C1)C(=O)N1CCC[C@H](N1)C(=O)OCC(C)(C)C2 (atropisomer, axis not shown) |  | < 0.01 µM |  |  | < 0.01 µM |
| C=CC(=O)N1CC[C@H](C(=O)N(C)[C@H](C(=O)N[C@H]2Cc3nc(ns3)-c3ccc4c(c3)c(c(-c3cncnc3[C@H](C)OC)n4CC)CC(C)(C)CC=C[C@@H]3CCCN(N3)C2=O)C(C)C)C1 (stereo in doubt) | > 10 µM | > 10 µM | > 10 µM | > 10 µM | > 10 µM |
| CCn1c(-c2cccnc2C(C)OC)c2c3cc(ccc31)-c1cccc(c1)C[C@H](NC(=O)[C@H](C(C)C)N(C)C(=O)[C@H]1CCN(C(=O)C#CC3CCO3)C1)C(=O)N1CCC[C@H](N1)C(=O)OCC(C)(C)C2 (stereo not given in full) | in the range around 5.5 µM | in the range around 0.55 µM | in the range around 5.5 µM | in the range around 5.5 µM | < 0.01 µM |
| CCn1c(-c2cccnc2C(C)OC)c2c3cc(ccc31)-c1cccc(c1)C[C@H](NC(=O)[C@H](C(C)C)N(C)C(=O)[C@H]1CCN(C(=O)C#C[C@@H]3COCCN3C)C1)C(=O)N1CCC[C@H](N1)C(=O)OCC(C)(C)C2 (stereo not given in full) | in the range around 5.5 µM | in the range around 5.5 µM | in the range around 5.5 µM | > 10 µM | in the range around 0.055 µM |
| CCn1c(-c2ccccc2CCOC)c2c3cc(ccc31)-c1cc(O)cc(c1)C[C@H](NC(=O)[C@H](C(C)C)N(C)C(=O)[C@H]1CCN(C(=O)/C=C/CN(C)C)C1)C(=O)N1CCC[C@H](N1)C(=O)OCC(C)(C)C2 | in the range around 0.55 µM | in the range around 5.5 µM | in the range around 0.55 µM |  |  |
| C=CC(=O)N1CC(OCC(C(=O)N[C@H]2Cc3cccc(c3)-c3ccc4c(c3)c(c(-c3cccnc3C(C)OC)n4CC(F)(F)F)CC(C)(C)COC(=O)[C@@H]3CCCN(N3)C2=O)C(C)C)C1 (stereo not given in full) | > 10 µM | > 10 µM | > 10 µM | > 10 µM | in the range around 5.5 µM |
| C=CC(=O)N1CC[C@H](C(=O)N(C)[C@H](C(=O)N[C@H]2Cc3cc(O)cc(c3)-c3ccc4c(c3)c(c(-c3ccccc3CO)n4CC)CC(C)(C)COC(=O)[C@@H]3CCCN(N3)C2=O)C(C)C)C1 | in the range around 0.55 µM | in the range around 5.5 µM | in the range around 0.55 µM |  |  |
